Test results published in paper PMC12123458, “Unraveling Small Molecule-Mediated Sirtuin 3 Activation at a Distinct Binding Site for Cardioprotective Therapies” (ACS Central Science, 2025).
Numbering of substitutions follows the chain as printed.

Columns and labels:
SIRT3 = target: T1, SIRT3 (Homo sapiens, UniProt Q9NTG7); assay: Fluor de Lys (FDL) fluorimetric SIRT3 deacetylase activity assay; type: biochemical
T1 construct: purchased Enzo Life Sciences BML-AK557-0001
T1 sequence (Q9NTG7 1-399): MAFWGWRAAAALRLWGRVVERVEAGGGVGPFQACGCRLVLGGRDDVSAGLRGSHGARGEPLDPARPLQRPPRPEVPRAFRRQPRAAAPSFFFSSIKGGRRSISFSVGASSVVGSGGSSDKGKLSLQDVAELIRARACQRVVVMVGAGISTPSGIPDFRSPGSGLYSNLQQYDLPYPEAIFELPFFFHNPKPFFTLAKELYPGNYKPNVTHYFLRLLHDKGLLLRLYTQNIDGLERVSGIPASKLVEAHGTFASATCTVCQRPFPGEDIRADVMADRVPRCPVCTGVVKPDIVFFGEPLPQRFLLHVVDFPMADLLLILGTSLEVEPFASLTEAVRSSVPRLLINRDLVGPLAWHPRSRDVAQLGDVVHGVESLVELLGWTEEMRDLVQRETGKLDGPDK
Procedure: The SIRT3 activity was assessed using the Enzo Life Sciences kit (BML-AK557-0001) per the protocol provided. A 10 μM fluoro-acetylated p53 peptide and 500 μM NAD^+ were added to SIRT3 assay buffer, incubated with test compounds and 0.5 μg recombinant SIRT3 at 37 °C for 30 min. In the mass spectrometry (MS) assay, 5 μM hSirt3 was reacted with 0.25 mM peptide and 1.25 mM NAD^+, with or without 10 μM SKLB-11A in 2% DMSO, at 37 °C. Controls included 2% DMSO without SKLB-11A. The reaction was halted at defined intervals using 5 mM nicotinamide, and the mixture then underwent filtration and subjected to nano LC-MS/MS analysis. Acetylated Peptide: MnSOD-K122 ([…]-Ac).

hSirt3 = target: T2, hSirt3 (Homo sapiens, UniProt Q9NTG7); assay: Mass spectrometry-based deacetylation assay, substrate […]-Ac; type: biochemical; details: substrate GELLEAIK-Ac; SKLB-11A 100 μM
T2 sequence (Q9NTG7 1-399): T1 sequence (Q9NTG7 1-399)

SIRT2 = target: T3, SIRT2 (Homo sapiens, UniProt Q8IXJ6); assay: SPR binding to SIRT2
T3 sequence (Q8IXJ6 1-389): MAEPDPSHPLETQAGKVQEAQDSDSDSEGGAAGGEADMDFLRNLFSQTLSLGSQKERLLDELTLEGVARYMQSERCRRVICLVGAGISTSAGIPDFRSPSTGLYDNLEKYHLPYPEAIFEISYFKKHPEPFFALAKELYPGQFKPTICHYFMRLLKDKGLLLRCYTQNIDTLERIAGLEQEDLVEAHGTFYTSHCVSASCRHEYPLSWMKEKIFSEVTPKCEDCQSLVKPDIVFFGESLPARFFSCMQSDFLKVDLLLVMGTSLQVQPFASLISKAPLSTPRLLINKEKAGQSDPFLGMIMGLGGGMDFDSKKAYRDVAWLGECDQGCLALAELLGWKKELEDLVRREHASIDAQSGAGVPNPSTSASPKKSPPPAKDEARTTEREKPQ
Procedure: (§1) The affinity of SKLB-11A for SIRT1, SIRT2, SIRT3, SIRT5, and SIRT6 was determined using a Reichert 4SPR system (Reichert Technologies, Depew, NY, USA). Proteins at 200 μg/mL were immobilized on a dextran-coated sensor chip (13206066) until reaching ≥12,000 response units (RUs). A dual-flow channel setup was used, reserving one channel for blank controls. SKLB-11A was introduced at varying concentrations for binding and subsequent dissociation kinetic analysis. Data acquisition was at 25 °C utilizing a PBST running buffer (pH 7.4). The equilibrium dissociation constant (K d) was computed from steady-state affinity measurements using TraceDrawer software.

SIRT6 = SIRT6 (Homo sapiens, UniProt Q8N6T7); assay: SPR binding to SIRT6
Chain of SIRT6 (Q8N6T7 whole entry, species assumed): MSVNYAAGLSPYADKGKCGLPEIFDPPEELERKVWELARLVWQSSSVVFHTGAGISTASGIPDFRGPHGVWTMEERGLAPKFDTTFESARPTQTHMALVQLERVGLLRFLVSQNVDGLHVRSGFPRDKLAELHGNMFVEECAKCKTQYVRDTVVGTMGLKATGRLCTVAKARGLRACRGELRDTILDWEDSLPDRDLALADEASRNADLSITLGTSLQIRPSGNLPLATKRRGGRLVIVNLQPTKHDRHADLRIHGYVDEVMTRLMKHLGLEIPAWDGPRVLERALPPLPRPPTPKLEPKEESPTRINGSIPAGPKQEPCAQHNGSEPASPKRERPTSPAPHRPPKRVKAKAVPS
Procedure: as §1

SIRT3 L298G mutant = target: T4, SIRT3 L298G mutant (Homo sapiens, UniProt Q9NTG7, L298G); assay: BLI binding of SKLB-11A to mutant SIRT3 (L298G); details: read-out: dissociation constant, L298G mutant SIRT3
T4 construct: made in house
T4 sequence (Q9NTG7 1-399 L298G): T1 sequence (Q9NTG7 1-399) with L298G
Procedure: SIRT3 protein at a concentration of 10 mg/mL was incubated with SKLB-11A (200 mM) in a mole ratio of 1:5 on ice for 1–3 h. The mixture was then centrifuged at 4 °C for 10 min, and the supernatant was used for crystallization. The precipitant solution consisted of 0.2 M Li2SO4, 1.0 M (NH4)2SO4, and 0.1 M Tris, at pH 7.5. Crystals emerged after approximately 3 days at 16 °C on a sitting-drop plate. The crystals were subsequently transferred to a cryoprotectant solution containing 20% glycerol and were flash-cooled in a nitrogen gas stream at 100 K for synchrotron radiation X-ray diffraction data collection. Site-directed mutagenesis. L298G Primer forward: 5′-[…]-GAACCGggc[…][…]-3′; reverse: 5′-gccCGGTT[…]-AAAACGA-3′; Site-directed mutagenesis was conducted using 2 x Phanta Flash Master Mix (Vazyme, P510). The mutated plasmid was sequenced by Sangon Biotech (Shanghai, China).
Binding kinetics of SIRT3 with various compounds were quantified using SSA biosensors on an Octet Red96 system (ForteBio). The assays occurred in 96-well plates, recording wavelength shifts in real-time. Ambient temperature was maintained at 25 °C, with plate agitation at 1000 rpm, and a reaction volume of 200 μL per well. SIRT3 protein and test compounds were prepared in phosphate-buffered saline (PBS, pH 7.4). […]

SMILES: COC(=O)c1c(N)n(Cc2ccc(F)cc2)c2nc3ccccc3nc12 [SKLB-11A, Methyl 2-amino-1-(4-fluorobenzyl)-1H-pyrrolo[2,3-b]quinoxaline-3-carboxylate]
- % effect @ 100 µM of SIRT3 (SIRT3; 100 µM, FDL deacetylation assay, compared to the control group, mean ± SD): maintained or enhanced the activity
- activity at 100 µM (SIRT3; 0.5 h, 100 µM, FDL deacetylation assay, compared to the control group, mean ± SD, read-out: % effect @ 100 µM of SIRT3): 188.1 ± 1.58%
- SIRT3 activation compared with other SIRT3 activators (SIRT3; FDL assay): better SIRT3 activation
- EC50 (SIRT3; FDL assay, read-out: EC50, SIRT3 deacetylation activity): 22 ± 1.57 µM
- catalytic efficiency of SIRT3 deacetylation (MS assay) (hSirt3): significantly increased the catalytic efficiency
- Kd (SIRT2; SPR): > 200 µM
- affinity for SIRT2 lower than its affinity for SIRT3 (SIRT2; SPR Kd ratio): approximately 40 times
- binding to SIRT6 (SIRT6): no binding
- Kd (SIRT3 L298G mutant): 167 µM
